Assay results published in patent publication US20170158702A1, “MULTIVALENT RAS BINDING COMPOUNDS” (KYRAS THERAPEUTICS, INC., priority 2015, published 2017).
pEC50: −log10 of the molar value. Where a name gives a salt, the structure may show the parent alone.

Key:
Assay type in all cases: cell-based
NCI-H460 = assay: Viability assay with NCI-H460 (CellTiter-Glo cytotoxicity assay, 72 h); settings: NCI-H460 cell line, 72 h after compounds addition
Experimental: (§1) NCI-H460 (Epithelial lung tissue; carcinoma; large cell lung cancer) were cultured in RPMI Medium 1640 (Invitrogen-22400105) supplemented with 10% fetal bovine serum (FBS; Invitrogen-10099141). All the cell lines were maintained in a humidified incubator at 37° C. with 5% CO2. Cell culture media and supplements were purchased from Invitrogen, and tissue culture flasks were purchased from Corning, 96-well plates were purchased from Greiner. CellTiter-Glo Luminescent Cell Viability Assay kits were purchased from Promega (Promega-G7573), cells counter Vi-Cell was purchased from Beckman, D300e digital dispenser was purchased from Tecan, detection instrument Envision was purchased from PerkinElmer.
(§2) Paclitaxel was purchased from SELLECK, test compounds, such as any one of the compounds disclosed herein, attained solubility in DMSO and when diluted into culture media. DMSO, solutions containing the test compounds, and culture media were warmed to 37° C. or room temperature for the solution preparation and dilutions.
(§3) NCI-H460 Cell line were seeded in 96-well plates (1200/well) and allowed to adhere to overnight (100 uL/well), for drug treatments with 2 fold dilution, 9 dose points, triplicates or vehicle control, compound stock solutions were prepared in DMSO and use D300e digital dispenser to add compounds to the wells to give the indicated final drug concentrations. Final DMSO concentration was 0.5%. Cellular ATP concentrations were assessed by using the CellTiter-Glo Cell Viability Assay as per the manufacturer's instructions 72 h after compounds addition. Additional cells lines were assayed with any one of the compounds disclosed herein according to the procedures described for the viability assay with NCI-H460.

HT-29 = assay: Viability assay with HT-29; settings: HT-29, viability assay per Example 57
Experimental: as §1, §2, §3
A viability assay with HT-29 (Colorectal adenocarcinoma) was performed with compounds listed in Table 18 according to the procedures described in Example 57.

MIA PaCa-2 = assay: Viability assay with MIA PaCa-2; settings: MIA PaCa-2, viability assay per Example 57
Experimental: as §1, §2, §3
A viability assay with MIA PaCa-2 (Epithelial pancreas tissue; carcinoma) was performed with compounds listed in Table 15, according to the procedures described in Example 57.

SMILES	pEC50 (NCI-H460)	pEC50 (HT-29)	pEC50 (MIA PaCa-2)
Cn1ccc(-c2cn(CCCN)c3ccc(CN4CCN(Cc5ccccc5Cl)CC4)cc23)n1 [C189; HCl]	5.00 to 5.30	≥ 5.30	5.00 to 5.30
NCCCn1cc(-c2cc[nH]n2)c2cc(CN3CCN(Cc4ccccc4Cl)CC3)ccc21 [C190; HCl]	5.00 to 5.30	5.00 to 5.30	5.00 to 5.30
Cn1cc(-c2cn(CCCN)c3ccc(CN4CCN(Cc5ccccc5Cl)CC4)cc23)cn1 [C191; HCl]	5.00 to 5.30	5.00 to 5.30	5.00 to 5.30
NCCCn1cc(-c2cn[nH]c2)c2cc(CN3CCN(Cc4ccccc4Cl)CC3)ccc21 [C192; HCl]	5.00 to 5.30	5.00 to 5.30	5.00 to 5.30
CN(CCN(C)C(=O)c1ccc2c(c1)c(-c1ccc(OC(F)(F)F)cc1)cn2CCCN)Cc1ccccc1Cl [C193; HCl]	≥ 5.30	≥ 5.30	≥ 5.30
Cc1ncc(CN2CCN(Cc3ccc4c(c3)c(-c3ccc(OC(F)(F)F)cc3)cn4CCCN)CC2)n1C [C194; HCl]	5.00 to 5.30	5.00 to 5.30	5.00 to 5.30
Cc1ncc(CN2CCN(Cc3ccc4c(c3)c(-c3ccc(OC(F)(F)F)cc3)cn4CCCN)CC2)[nH]1 [C195; HCl]	5.00 to 5.30	5.00 to 5.30	5.00 to 5.30
COc1ccc(-c2cn(CCCN)c3ccc(CN4CCN(Cc5ccccc5Cl)CC4)cc23)nc1 [C196; HCl]	≥ 5.30	≥ 5.30	≥ 5.30
FC(F)(F)Oc1ccc(-c2cn(C3CCNC3)c3ccc(CN4CCN(Cc5ccccc5Cl)CC4)cc23)cc1 (stereo not drawn) [C197; HCl]	≥ 5.30	≥ 5.30	≥ 5.30
FC(F)(F)Oc1ccc(-c2cn(CCNc3ccccn3)c3ccc(CN4CCN(Cc5ccccc5Cl)CC4)cc23)cc1 [C199; HCl]	5.00 to 5.30	5.00 to 5.30	5.00 to 5.30
COc1ccc(-n2c(=O)n(CCCN)c3ccc(CN4CCN(Cc5ccccc5Cl)CC4)cc32)cc1 [C200; HCl]	5.00 to 5.30	5.00 to 5.30	5.00 to 5.30
NC1(C(=O)NCCCn2nc(-c3ccc(OC(F)(F)F)cc3)c3cc(CN4CCN(Cc5ccccc5Cl)CC4)ccc32)CCNCC1 [C201; HCl]	≥ 5.30	≥ 5.30	≥ 5.30
FC(F)(F)Oc1ccc(-c2cn(CCCCNc3ccccn3)c3ccc(CN4CCN(Cc5ccccc5Cl)CC4)cc23)cc1 [C202; Formic Acid]	≥ 5.30	5.00 to 5.30	5.00 to 5.30
NCC(=O)N1CCC(n2cc(-c3ccc(OC(F)(F)F)cc3)c3cc(CN4CCN(Cc5ccccc5Cl)CC4)ccc32)CC1 [C203; HCl]	≥ 5.30	≥ 5.30	≥ 5.30
COc1cnc(-c2cn(CCCN)c3ccc(CN4CCN(Cc5ccccc5Cl)CC4)cc23)nc1 [C204; HCl]	≥ 5.30	≥ 5.30	≥ 5.30
FC(F)(F)Oc1ccc(-c2cn(CCCCN(c3ccccn3)c3ccccn3)c3ccc(CN4CCN(Cc5ccccc5Cl)CC4)cc23)cc1 [C205; Formic Acid]	5.00 to 5.30	5.00 to 5.30	5.00 to 5.30
COc1ccc(-c2cn(C(C)(C)CCN)c3ccc(CN4CCN(Cc5ccccc5Cl)CC4)cc23)cc1 [C206; HCl]	≥ 5.30	≥ 5.30	≥ 5.30
FC(F)(F)Oc1ccc(-c2cn(CCCNc3ccccn3)c3ccc(CN4CCN(Cc5ccccc5Cl)CC4)cc23)cc1 [C208; Formic Acid]	≥ 5.30	5.00 to 5.30	5.00 to 5.30
NCCCn1cc(-c2ccc(OC(F)(F)F)cc2)c2cc(CN3CCC(Nc4ccc(Cl)cc4)CC3)ccc21 [C210; HCl]	≥ 5.30	≥ 5.30	≥ 5.30
NC1CCC(n2cc(-c3ccc(OC(F)(F)F)cc3)c3cc(CN4CCN(Cc5ccccc5Cl)CC4)ccc32)CC1 (stereo not drawn) [C212; HCl]	≥ 5.30	≥ 5.30	≥ 5.30
NCCCn1cc(-c2ccc(OC(F)(F)F)cc2)c2cc(CN3CCC(Nc4ccccc4Cl)CC3)ccc21 [C213; Formic Acid]	≥ 5.30	≥ 5.30	≥ 5.30
